Among the data in PMC11672299, “Conjugation of Polycationic Peptides Extends the Efficacy Spectrum of β‐Lactam Antibiotics” (Advanced Science, 2024) are MIC values, retold here.

Peptide text beside a SMILES is read from it. * marks the point of attachment. X1 = CC(C)(O/N=C(\C(=O)N[C@@H]1C(=O)N2C(C(=O)[O-])=C(C[n+]3ccccc3)CS[C@H]12)c1csc(N)n1)C(=O)NCCCCCCN1C(=O)CC(*)C1=O; X2 = C[C@H]1[C@H](NC(=O)/C(=N\OC(C)(C)C(=O)NCCCCCCN2C(=O)CC(*)C2=O)c2csc(N)n2)C(=O)N1S(=O)(=O)O Bounds are passed on as bounds.

In one assay the test system is B. subtilis DSM 10. Description: microbe, parasite or virus in culture. Type of assay: cell-based. To be noted: Bacillus subtilis, DSM10; B. subtilis DSM 10; median (n = 3); read-out: MIC. On the procedure:
The minimum inhibitory concentration (MIC) of the β‐lactam–peptide conjugates was determined by broth microdilution as previously described.^[ [17] ^] Briefly, in cation‐adjusted MHB II medium, a twofold serial dilution of the compounds was prepared in 96‐well round‐bottom polystyrene or polypropylene microtiter plates with each well containing 50 µL. The plates were inoculated with 50 µL bacterial suspension and the final inoculum, in a total volume of 100 µL, contained 5 × 10^5 CFU mL^−1. The microplates were incubated for 20 h at 37 ± 1 °C. The lowest concentration preventing visible bacterial growth was considered the MIC value. For susceptibility testing of combinations of β‐lactamase‐inhibitors with either a β‐lactam antibiotic or a β‐lactam–peptide conjugate, fixed concentrations of the inhibitors according to the EUCAST (European Committee on Antimicrobial Susceptibility Testing) guidelines (clavulanic acid = 2 mg L^−1, avibactam = 4 mg L^−1) were used.
In the case of `C[C@@H](O)[C@H]1C(=O)N2C(C(=O)O)=C(S[C@@H]3CN[C@H](C(=O)Nc4cccc(C(=O)O)c4)C3)[C@H](C)[C@H]12` [ERT, ertapenem, reference compound], the MIC was determined as 0.5 µg/mL.

Still in this assay, the particulars now being: DSM 10, 20 h.
Take `CC(C)(O/N=C(\C(=O)N[C@@H]1C(=O)N2C(C(=O)[O-])=C(C[n+]3ccccc3)CS[C@H]12)c1csc(N)n1)C(=O)NCCCCCCN1C(=O)CC(SC[C@H](NC(=O)[C@H](CCC(=O)O)NC(=O)[C@H](CCC(=O)O)NC(=O)[C@H](CCC(=O)O)NC(=O)[C@H](CCC(=O)O)NC(=O)[C@H](CCC(=O)O)NC(=O)[C@@H](N)CCC(=O)O)C(N)=O)C1=O` (stereo partly shown) [CTZ-E6]: the MIC is greater than 64 µg/mL.
The same measure, in the same setting: in the case of `C[C@H]1[C@H](NC(=O)/C(=N\OC(C)(C)C(=O)NCCCCCCN2C(=O)CC(SC[C@H](NC(=O)[C@H](CCCNC(=N)N)NC(=O)[C@H](CCCNC(=N)N)NC(=O)[C@@H](N)CCCNC(=N)N)C(N)=O)C2=O)c2csc(N)n2)C(=O)N1S(=O)(=O)O` (stereo partly shown) [AZT-R3] it was 1 µg/mL; in that of `CC(C)(O/N=C(\C(=O)N[C@@H]1C(=O)N2C(C(=O)[O-])=C(C[n+]3ccccc3)CS[C@H]12)c1csc(N)n1)C(=O)NCCCCCCN1C(=O)CC(SC[C@H](NC(=O)[C@H](CCCNC(=N)N)NC(=O)CNC(=O)[C@H](CCCNC(=N)N)NC(=O)CNC(=O)[C@H](CCCNC(=N)N)NC(=O)CN)C(N)=O)C1=O` (stereo partly shown) [CTZ-(GR)3] (H-GRGRGRC(X1)-NH2; N-terminus assumed), 0.06 µg/mL; in that of `C[C@H]1[C@H](NC(=O)/C(=N\OC(C)(C)C(=O)NCCCCCCN2C(=O)CC(SC[C@H](NC(=O)[C@H](CCCCN)NC(=O)[C@H](CCCCN)NC(=O)[C@H](CCCCN)NC(=O)[C@H](CCCNC(=N)N)NC(=O)[C@H](CCCNC(=N)N)NC(=O)[C@@H](N)CCCNC(=N)N)C(N)=O)C2=O)c2csc(N)n2)C(=O)N1S(=O)(=O)O` (stereo partly shown) [AZT-R3K3] (H-RRRKKKC(X2)-NH2; N-terminus assumed), 0.06 µg/mL.
Regarding `CC(C)(O/N=C(\C(=O)N[C@@H]1C(=O)N2C(C(=O)[O-])=C(C[n+]3ccccc3)CS[C@H]12)c1csc(N)n1)C(=O)NCCCCCCN1C(=O)CC(SC[C@H](NC(=O)CNC(=O)CNC(=O)CNC(=O)CNC(=O)CNC(=O)CN)C(N)=O)C1=O` (stereo partly shown) [CTZ-G6] (H-GGGGGGC(X1)-NH2; N-terminus assumed), the MIC stood at 8 µg/mL.
Same read-out and setting: in the case of `CC(C)(O/N=C(\C(=O)N[C@@H]1C(=O)N2C(C(=O)[O-])=C(C[n+]3ccccc3)CS[C@H]12)c1csc(N)n1)C(=O)NCCCCCCN1C(=O)CC(SC[C@H](NC(=O)[C@@H](N)CCCCN)C(N)=O)C1=O` (stereo partly shown) [CTZ-K1] it was 1 µg/mL; in that of `CC(C)(O/N=C(\C(=O)N[C@@H]1C(=O)N2C(C(=O)[O-])=C(C[n+]3ccccc3)CS[C@H]12)c1csc(N)n1)C(=O)NCCCCCCN1C(=O)CC(SC[C@H](NC(=O)[C@H](CCCNC(=N)N)NC(=O)[C@H](CCCNC(=N)N)NC(=O)[C@@H](N)CCCNC(=N)N)C(N)=O)C1=O` (stereo partly shown) [CTZ-R3], 0.06 µg/mL.
For the molecule `C[C@H]1[C@H](NC(=O)/C(=N\OC(C)(C)C(=O)NCCCCCCN2C(=O)CC(SC[C@H](NC(=O)[C@H](CCCCN)NC(=O)[C@H](CCCCN)NC(=O)[C@H](CCCCN)NC(=O)[C@H](CCCCN)NC(=O)[C@H](CCCCN)NC(=O)[C@H](CCCCN)NC(=O)[C@H](CCCCN)NC(=O)[C@H](CCCCN)NC(=O)[C@@H](N)CCCCN)C(N)=O)C2=O)c2csc(N)n2)C(=O)N1S(=O)(=O)O` (stereo partly shown) [AZT-K9] (H-KKKKKKKKKC(X2)-NH2; N-terminus assumed), the MIC stood at 0.1 µg/mL.
Still for that read-out and setting: for `C[C@H]1[C@H](NC(=O)/C(=N\OC(C)(C)C(=O)NCCCCCCN2C(=O)CC(SC[C@H](NC(=O)[C@@H](N)CCCCN)C(N)=O)C2=O)c2csc(N)n2)C(=O)N1S(=O)(=O)O` (stereo partly shown) [AZT-K1] the value was 16 µg/mL.
For the molecule `C[C@H]1[C@H](NC(=O)/C(=N\OC(C)(C)C(=O)NCCCCCCN2C(=O)CC(SC[C@H](NC(=O)[C@H](CCCCN)NC(=O)[C@H](CCCCN)NC(=O)[C@H](CCCCN)NC(=O)[C@H](CCCCN)NC(=O)[C@H](CCCCN)NC(=O)[C@H](CCCCN)NC(=O)[C@H](CCCCN)NC(=O)[C@H](CCCCN)NC(=O)[C@H](CCCCN)NC(=O)[C@H](CCCCN)NC(=O)[C@H](CCCCN)NC(=O)[C@@H](N)CCCCN)C(N)=O)C2=O)c2csc(N)n2)C(=O)N1S(=O)(=O)O` (stereo partly shown) [AZT-K12] (H-KKKKKKKKKKKKC(X2)-NH2; N-terminus assumed), the MIC turned out to be 0.06 µg/mL.
On the same count and under the same terms, in the case of `CC(C)(O/N=C(\C(=O)N[C@@H]1C(=O)N2C(C(=O)[O-])=C(C[n+]3ccccc3)CS[C@H]12)c1csc(N)n1)C(=O)NCCCCCCN1C(=O)CC(SC[C@H](NC(=O)[C@H](CCCNC(=N)N)NC(=O)[C@H](CCCCN)NC(=O)[C@H](CCCNC(=N)N)NC(=O)[C@H](CCCCN)NC(=O)[C@H](CCCNC(=N)N)NC(=O)[C@@H](N)CCCCN)C(N)=O)C1=O` (stereo partly shown) [CTZ-(KR)3] (H-KRKRKRC(X1)-NH2; N-terminus assumed) it was 0.008 µg/mL; in that of `CC1(C)S[C@@H]2[C@H](NC(=O)[C@H](NC(=O)C3CCC(CN4C(=O)CC(SC[C@H](NC(=O)[C@H](CCCNC(=N)N)NC(=O)[C@H](CCCNC(=N)N)NC(=O)[C@H](CCCNC(=N)N)NC(=O)[C@H](CCCNC(=N)N)NC(=O)[C@H](CCCNC(=N)N)NC(=O)[C@@H](N)CCCNC(=N)N)C(N)=O)C4=O)CC3)c3ccc(O)cc3)C(=O)N2[C@H]1C(=O)O` (stereo partly shown) [AMO-R6], 0.06 µg/mL; in that of `C[C@H]1[C@H](NC(=O)/C(=N\OC(C)(C)C(=O)NCCCCCCN2C(=O)CC(SC[C@H](NC(=O)[C@@H](N)CCCNC(=N)N)C(N)=O)C2=O)c2csc(N)n2)C(=O)N1S(=O)(=O)O` (stereo partly shown) [AZT-R1], 16 µg/mL.
On the same count and under the same terms, in the case of `C[C@H]1[C@H](NC(=O)/C(=N\OC(C)(C)C(=O)NCCCCCCN2C(=O)CC(SC[C@H](NC(=O)[C@H](CCC(=O)O)NC(=O)[C@H](CCC(=O)O)NC(=O)[C@H](CCC(=O)O)NC(=O)[C@H](CCC(=O)O)NC(=O)[C@H](CCC(=O)O)NC(=O)[C@@H](N)CCC(=O)O)C(N)=O)C2=O)c2csc(N)n2)C(=O)N1S(=O)(=O)O` (stereo partly shown) [AZT-E6] it was greater than 64 µg/mL.
Consider `CC(C)(O/N=C(\C(=O)N[C@@H]1C(=O)N2C(C(=O)[O-])=C(C[n+]3ccccc3)CS[C@H]12)c1csc(N)n1)C(=O)NCCCCCCN1C(=O)CC(SC[C@H](NC(=O)[C@H](CCCCN)NC(=O)[C@H](CCCCN)NC(=O)[C@H](CCCCN)NC(=O)[C@H](CCCNC(=N)N)NC(=O)[C@H](CCCNC(=N)N)NC(=O)[C@@H](N)CCCNC(=N)N)C(N)=O)C1=O` (stereo partly shown) [CTZ-R3K3] (H-RRRKKKC(X1)-NH2; N-terminus assumed), for which the MIC was 0.008 µg/mL.
With `C[C@H]1[C@H](NC(=O)/C(=N\OC(C)(C)C(=O)NCCCCCCN2C(=O)CC(SC[C@H](NC(=O)[C@H](CCCNC(=N)N)NC(=O)[C@H](CCCNC(=N)N)NC(=O)[C@H](CCCNC(=N)N)NC(=O)[C@H](CCCNC(=N)N)NC(=O)[C@H](CCCNC(=N)N)NC(=O)[C@H](CCCNC(=N)N)NC(=O)[C@H](CCCNC(=N)N)NC(=O)[C@H](CCCNC(=N)N)NC(=O)[C@@H](N)CCCNC(=N)N)C(N)=O)C2=O)c2csc(N)n2)C(=O)N1S(=O)(=O)O` (stereo partly shown) [AZT-R9], the MIC is 0.5 µg/mL.
As to `C[C@H]1[C@H](NC(=O)/C(=N\OC(C)(C)C(=O)NCCCCCCN2C(=O)CC(SC[C@H](NC(=O)[C@H](CCCCN)NC(=O)[C@H](CCCCN)NC(=O)[C@@H](N)CCCCN)C(N)=O)C2=O)c2csc(N)n2)C(=O)N1S(=O)(=O)O` (stereo partly shown) [AZT-K3], the MIC turned out to be 8 µg/mL.
On the same count and under the same terms, in the case of `C[C@H]1[C@H](NC(=O)/C(=N\OC(C)(C)C(=O)NCCCCCCN2C(=O)CC(SC[C@H](NC(=O)[C@H](CCCCN)NC(=O)[C@H](CCCCN)NC(=O)[C@H](CCCCN)NC(=O)[C@H](CCCCN)NC(=O)[C@H](CCCCN)NC(=O)[C@@H](N)CCCCN)C(N)=O)C2=O)c2csc(N)n2)C(=O)N1S(=O)(=O)O` (stereo partly shown) [AZT-K6] (H-KKKKKKC(X2)-NH2; N-terminus assumed) it was 0.25 µg/mL; in that of `CC(C)(O/N=C(\C(=O)N[C@@H]1C(=O)N2C(C(=O)[O-])=C(C[n+]3ccccc3)CS[C@H]12)c1csc(N)n1)C(=O)NCCCCCCN1C(=O)CC(SC[C@H](NC(=O)[C@@H](N)CCCNC(=N)N)C(N)=O)C1=O` (stereo partly shown) [CTZ-R1], 1 µg/mL; in that of `CC(C)(O/N=C(\C(=O)N[C@@H]1C(=O)N2C(C(=O)[O-])=C(C[n+]3ccccc3)CS[C@H]12)c1csc(N)n1)C(=O)NCCCCCCN1C(=O)CC(SC[C@H](NC(=O)[C@H](CCCCN)NC(=O)[C@H](CCCCN)NC(=O)[C@H](CCCCN)NC(=O)[C@H](CCCCN)NC(=O)[C@H](CCCCN)NC(=O)[C@H](CCCCN)NC(=O)[C@H](CCCCN)NC(=O)[C@H](CCCCN)NC(=O)[C@H](CCCCN)NC(=O)[C@H](CCCCN)NC(=O)[C@H](CCCCN)NC(=O)[C@@H](N)CCCCN)C(N)=O)C1=O` (stereo partly shown) [CTZ-K12] (H-KKKKKKKKKKKKC(X1)-NH2), 0.02 µg/mL.
On to `C[C@H]1[C@H](NC(=O)/C(=N\OC(C)(C)C(=O)NCCCCCCN2C(=O)CC(SC[C@H](NC(=O)[C@H](CCCNC(=N)N)NC(=O)[C@H](CCCNC(=N)N)NC(=O)[C@H](CCCNC(=N)N)NC(=O)[C@H](CCCNC(=N)N)NC(=O)[C@H](CCCNC(=N)N)NC(=O)[C@H](CCCNC(=N)N)NC(=O)[C@H](CCCNC(=N)N)NC(=O)[C@H](CCCNC(=N)N)NC(=O)[C@H](CCCNC(=N)N)NC(=O)[C@H](CCCNC(=N)N)NC(=O)[C@H](CCCNC(=N)N)NC(=O)[C@@H](N)CCCNC(=N)N)C(N)=O)C2=O)c2csc(N)n2)C(=O)N1S(=O)(=O)O` (stereo partly shown) [AZT-R12], for which the MIC was found to be 1 µg/mL.
